Data on 26 compounds can be found in patent publication US11667602B2, “Compounds and their use” (AstraZeneca AB, priority 2020, dated 2023).

For this test, the target named is T1, human RXFP1 (Homo sapiens, UniProt Q9HBX9).
T1 sequence (Q9HBX9 1-757): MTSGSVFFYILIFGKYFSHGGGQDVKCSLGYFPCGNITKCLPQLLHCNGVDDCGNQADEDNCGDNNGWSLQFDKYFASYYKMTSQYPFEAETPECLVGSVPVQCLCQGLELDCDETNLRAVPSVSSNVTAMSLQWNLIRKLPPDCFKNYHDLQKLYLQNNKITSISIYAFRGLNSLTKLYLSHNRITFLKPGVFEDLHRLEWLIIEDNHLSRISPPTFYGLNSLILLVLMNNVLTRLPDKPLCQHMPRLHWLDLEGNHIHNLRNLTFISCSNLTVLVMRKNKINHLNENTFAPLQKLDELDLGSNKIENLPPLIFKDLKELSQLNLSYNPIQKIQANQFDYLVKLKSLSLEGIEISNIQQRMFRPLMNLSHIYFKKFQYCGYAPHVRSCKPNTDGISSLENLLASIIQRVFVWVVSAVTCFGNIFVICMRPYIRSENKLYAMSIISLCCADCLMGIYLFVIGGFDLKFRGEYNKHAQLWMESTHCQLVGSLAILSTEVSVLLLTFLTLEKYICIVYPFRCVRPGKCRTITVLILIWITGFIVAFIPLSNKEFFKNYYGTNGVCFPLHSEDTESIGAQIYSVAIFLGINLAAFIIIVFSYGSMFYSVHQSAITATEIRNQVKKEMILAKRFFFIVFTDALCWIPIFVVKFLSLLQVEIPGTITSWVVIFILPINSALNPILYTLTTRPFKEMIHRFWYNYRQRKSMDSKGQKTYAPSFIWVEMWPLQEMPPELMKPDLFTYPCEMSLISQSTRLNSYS
Nature of the test: RXFP1 Hu cAMP (Test A). It counts as cell-based. More on the design: expressed in transfected cells; host or cells: Jump-In T-REx CHO-K1 cells (ThermoFisher), induced with 10 ng/ml doxycycline for 24 h. The conditions noted are these: RXFP1 Hu cAMP; for EC50: read-out: Test A EC50. The gist of the method:
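CHO-K1 (Jump-In T-REx), RXFP1 induced w/ 10 ng/ml doxycycline 24 h, cryopreserved. 0.5 mM IBMX final. cAMP by HTRF, 2 h RT, std curve.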

With `COc1cc(F)c(-c2cccc(C(=O)O)c2F)cc1C(=O)N[C@H]1[C@@H](C(=O)Nc2cccc(S(=O)(=O)C(F)(F)F)c2)[C@@H]2C=C[C@H]1C2` (racemic) [Example 233], the “Test A Sinf” value is 105%.

The term EC50 denotes the concentration that produces a half-maximal response. Regarding `COc1cc(C#N)c(O[C@H]2CC[C@@](C)(C(=O)O)CC2)cc1C(=O)Nc1cc(C)ccc1C(=O)NCC1(C)CC1` [Example 174], the “Test A Sinf” value turned out to be 132% and the EC50 worked out at 110 nM.

As to `COc1cc(F)c(O[C@H]2CC[C@@](C)(C(=O)O)CC2)cc1C(=O)N[C@@H]1CC[C@@H]1C(=O)Nc1ccc(F)c(S(F)(F)(F)(F)F)c1` (racemic) [Example 347], the “Test A Sinf” value was 115% and the EC50 is 6.4 nM.

As for `COc1cc(F)c(O[C@H]2C[C@@](C)(C(=O)O)C2)cc1C(=O)N[C@@H]1[C@@H]2CC[C@@H](C2)[C@@H]1C(=O)Nc1cccc(S(=O)(=O)C(F)(F)F)c1` [Example 505, (1S,3s)-3-(2-Fluoro-4-methoxy-5-(((1R,2R,3S,4S)-3-((3-((trifluoromethyl)sulfonyl)phenyl)carbamoyl)bicyclo[2.2.1]heptan-2-yl)carbamoyl)phenoxy)-1-methylcyclobutane-1-carboxylic acid], the “Test A Sinf” value turned out to be 94% and the EC50 turned out to be 14 nM.

As for `COc1cc(F)c(O[C@H]2CC[C@H](S(N)(=O)=O)CC2)cc1C(=O)N[C@@H]1[C@@H]2CC[C@@H](C2)[C@@H]1C(=O)Nc1cccc(S(=O)(=O)C(F)(F)F)c1` [Example 462, (1S,2S,3R,4R)-3-(4-fluoro-2-methoxy-5-(((1r,4R)-4-sulfamoylcyclohexyl)oxy)benzamido)-N-(3-((trifluoromethyl)sulfonyl)phenyl)bicyclo[2.2.1]heptane-2-carboxamide], the “Test A Sinf” value was found to be 125%.

With `COc1cc(F)c(OCc2cccc(CC(=O)O)c2)cc1C(=O)N[C@H]1[C@@H](C(=O)Nc2cccc(S(=O)(=O)C(F)(F)F)c2)[C@@H]2C=C[C@H]1C2` (racemic) [Example 453], the “Test A Sinf” value is reported as 155% and the EC50 was found to be 2000 nM.

`COc1cc(F)c(O[C@H]2CC[C@@](C)(C(=O)O)CC2)cc1C(=O)N[C@@H]1[C@H]2CC[C@H](C2)[C@@H]1C(=O)NC1CCCC1` [Example 599]: the “Test A Sinf” value is listed as 91% and the EC50 amounted to 260 nM.

Regarding `COc1cc(F)c(-c2ccc([C@@H]3C[C@H]3C(=O)O)nc2)cc1C(=O)N[C@@H]1[C@H]2CC[C@H](C2)[C@@H]1C(=O)Nc1cccc(S(=O)(=O)C(F)(F)F)c1` (single isomer, unassigned) [Example 262, (1R*,2R*)-2-(5-(2-Fluoro-4-methoxy-5-(((1S,2R,3S,4R)-3-((3-((trifluoromethyl)sulfonyl)phenyl)carbamoyl)bicyclo[2.2.1]heptan-2-yl)carbamoyl)phenyl)pyridin-2-yl)cyclopropane-1-carboxylic acid], the “Test A Sinf” value turned out to be 95% and the EC50 came out at 26 nM.

Turning to `COc1cc(F)c(O[C@H]2CC[C@@](C)(C(=O)O)CC2)cc1C(=O)N[C@@H]1[C@H]2CC[C@H](C2)[C@@H]1C(=O)NCC(F)(F)C(F)(F)F` [Example 618], the “Test A Sinf” value is listed as 93% and the EC50 is 100 nM.

In the case of `COc1cc(F)c(O[C@H]2CC[C@@H](C(=O)OC)CC2)cc1C(=O)N[C@@H]1C[C@H](O)C[C@@H]1C(=O)Nc1cccc(S(=O)(=O)C(F)(F)F)c1` (racemic) [Example 496], the EC50 is more than 40000 nM.

Regarding `COc1cc(F)c(OCC23CCC(C(=O)O)(CC2)CC3)cc1C(=O)N[C@@H]1[C@H]2CC[C@H](C2)[C@@H]1C(=O)Nc1cccc(S(=O)(=O)C(F)(F)F)c1` [Example 441], the EC50 was more than 40000 nM.

On to `COc1cc(F)c(-c2ccnc(C(=O)O)c2)cc1C(=O)N[C@H]1[C@@H](C(=O)Nc2cccc(S(=O)(=O)C(F)(F)F)c2)[C@@H]2C=C[C@H]1C2` (racemic) [Example 272, rac-4-(2-Fluoro-4-methoxy-5-(((1R,2R,3S,4S)-3-((3-((trifluoromethyl)sulfonyl)phenyl)carbamoyl)bicyclo[2.2.1]hept-5-en-2-yl)carbamoyl)phenyl)picolinic acid], for which the “Test A Sinf” value was found to be 107% and the EC50 amounted to 4900 nM.

On to `COc1cc(F)c(O[C@H]2CC[C@@](C)(C(=O)O)CC2)cc1C(=O)N[C@@H]1[C@H]2CC[C@H](C2)[C@@H]1C(=O)NCC1(F)CCC1` [Example 609], for which the “Test A Sinf” value is on record as 108% and the EC50 came to 400 nM.

`COc1cc(F)c(O[C@H]2CC[C@@](C)(C(=O)O)CC2)cc1C(=O)N[C@@H]1[C@H]2CC[C@H](C2)[C@@H]1C(=O)NC1CCC1` [Example 598]: the “Test A Sinf” value is given as 99% and the EC50 came to 890 nM.

For the compound `COc1cc(F)c(-c2ccc(C(=O)O)s2)cc1C(=O)N[C@H]1[C@@H](C(=O)Nc2cccc(S(=O)(=O)C(F)(F)F)c2)[C@@H]2C=C[C@H]1C2` (racemic) [Example 285], the “Test A Sinf” value is recorded as 75% and the EC50 came out at 300 nM.

For `COc1cc(F)c(O[C@H]2CC[C@@](C)(C(=O)O)CC2)cc1C(=O)N[C@@H]1[C@@H]2CC[C@@H](C2)[C@@H]1C(=O)Nc1ccc(F)c(S(F)(F)(F)(F)F)c1` (racemic) [Example 371], the “Test A Sinf” value turned out to be 125% and the concentration giving a half-maximal response (EC50) turned out to be 1.1 nM.

For `CC1(CNC(=O)[C@H]2[C@@H]3CC[C@@H](C3)[C@H]2NC(=O)c2cc(O[C@H]3CC[C@@](C)(C(=O)O)CC3)c(F)cc2Cl)CCC1` [Example 398, (1S,4s)-4-(4-Chloro-2-fluoro-5-(((1S,2R,3S,4R)-3-(((1-methylcyclobutyl)methyl)carbamoyl)bicyclo[2.2.1]heptan-2-yl)carbamoyl)phenoxy)-1-methylcyclohexane-1-carboxylic acid], the “Test A Sinf” value was determined as 90% and the EC50 is 130 nM.

For `COc1cc(C#N)c(O[C@H]2CC[C@@](C)(C(=O)O)CC2)cc1C(=O)N[C@@H]1[C@H]2CC[C@H](C2)[C@@H]1C(=O)NC[C@@H](C)c1ccccc1` [Example 125], the “Test A Sinf” value is 116% and the EC50 turned out to be 16 nM.

As to `COc1ccc(Oc2cccc(C(=O)O)c2)cc1C(=O)N[C@H]1[C@@H](C(=O)Nc2cccc(S(=O)(=O)C(F)(F)F)c2)[C@@H]2C=C[C@H]1C2` (racemic) [Example 428], the “Test A Sinf” value was found to be 80% and the EC50 came out at 5100 nM.

Turning to `COc1cc(F)c(-c2ccc(C(=O)O)cc2)cc1C(=O)N[C@H]1[C@@H]2CC[C@@H](C2)[C@H]1C(=O)N[C@H]1CCCN(S(=O)(=O)C(F)(F)F)C1` (single isomer, unassigned) [Example 314, 2′-Fluoro-4′-methoxy-5′-(((1R*,2S*,3R*,4S*)-3-(((S)-1-((trifluoromethyl)sulfonyl)piperidin-3-yl)carbamoyl)bicyclo[2.2.1]heptan-2-yl)carbamoyl)-[1,1′-biphenyl]-4-carboxylic acid], the “Test A Sinf” value is listed as 74% and the EC50 stood at 7800 nM.

Consider “(1R,4s)-4-(2-Cyano-4-methoxy-5-(((1R*,2S*,3R*,4S*)-3-(((1-methylcyclobutyl)methyl)carbamoyl)bicyclo[2.2.2]oct-5-en-2-yl)carbamoyl)phenoxy)-1-methylcyclohexane-1-carboxylic acid [Example 541]”, for which the “Test A Sinf” value amounted to 100%.

Regarding `COc1cc(F)c(O[C@H]2CC[C@@](C)(C(=O)O)CC2)cc1C(=O)NC1C(C(=O)Nc2cccc(S(=O)(=O)C(F)(F)F)c2)CC(O)C1O` (single isomer, unassigned) [Example 562, (1R,4s)-4-(5-(((1S*,2R*,3S*,5S*)-2,3-Dihydroxy-5-((3-((trifluoromethyl)sulfonyl)phenyl)carbamoyl)cyclopentyl)carbamoyl)-2-fluoro-4-methoxyphenoxy)-1-methylcyclohexane-1-carboxylic acid], the EC50 was more than 40000 nM.

“(1R,4s)-4-(2-Cyano-4-fluoro-5-(((2S*,3R*)-3-(((1-methylcyclobutyl)methyl)carbamoyl)bicyclo[2.2.2]octan-2-yl)carbamoyl)phenoxy)-1-methylcyclohexane-1-carboxylic acid [Example 589]”: the “Test A Sinf” value was 83%.

In the case of `COc1cc(F)c(-c2cccc([C@@H](C(=O)O)N(C)C)c2)cc1C(=O)N[C@@H]1[C@H]2CC[C@H](C2)[C@@H]1C(=O)Nc1cccc(S(=O)(=O)C(F)(F)F)c1` (racemic) [Example 294], the “Test A Sinf” value turned out to be 95% and the EC50 amounted to 370 nM.

In the case of “(1R,4s)-4-(2-Fluoro-4-methoxy-5-(((3S*,4R*)-4-(neopentylcarbamoyl)tetrahydrofuran-3-yl)carbamoyl)phenoxy)-1-methylcyclohexane-1-carboxylic acid [Example 567]”, the “Test A Sinf” value is listed as 86%.

Take `COc1cc(F)c(-c2ccc(C(=O)O)cc2)cc1C(=O)N[C@H]1[C@@H]2CC[C@@H](C2)[C@H]1C(=O)Nc1ccc(F)c(C(F)(F)F)c1` (single isomer, unassigned) [Example 590]: the EC50 was more than 40000 nM.
